Results reported in patent EP1652531A1, “Use of GLP-1 or Analogues in Treatment of Stroke” (Eli Lilly & Company, priority 1998, dated 2006).

What was measured:
[1] = test system: patients having non-insulin dependent diabetes (NIDDM); experiment: Overnight continuous subcutaneous infusion, blood glucose in NIDDM patients (Example 1); conditions: five NIDDM patients; subcutaneous infusion 1.2 pmol/kg/hr for ten hours during the night
NIDDM patients = experiment: Infusion for three hours at each meal during the day, blood glucose in NIDDM patients (Example 2); conditions: five NIDDM patients
STC-1 cells = conditions: exposure of STC-1 cells (Abella et al., 1994); cited from earlier work

Compound	hypoglycemia [1]	untoward side effects (NIDDM patients)	release of GLP-1 (STC-1 cells)
CC[C@H](C)[C@H](NC(=O)[C@H](Cc1ccccc1)NC(=O)[C@H](CCC(=O)O)NC(=O)[C@H](CCCCN)NC(=O)[C@H](C)NC(=O)[C@H](C)NC(=O)[C@H](CCC(N)=O)NC(=O)CNC(=O)[C@H](CCC(=O)O)NC(=O)[C@H](CC(C)C)NC(=O)[C@H](Cc1ccc(O)cc1)NC(=O)[C@H](CO)NC(=O)[C@H](CO)NC(=O)[C@@H](NC(=O)[C@H](CC(=O)O)NC(=O)[C@H](CO)NC(=O)[C@@H](NC(=O)[C@H](Cc1ccccc1)NC(=O)[C@@H](NC(=O)CNC(=O)[C@H](CCC(=O)O)NC(=O)[C@H](C)NC(=O)[C@@H](N)Cc1c[nH]cn1)[C@@H](C)O)[C@@H](C)O)C(C)C)C(=O)N[C@@H](C)C(=O)N[C@@H](Cc1c[nH]c2ccccc12)C(=O)N[C@@H](CC(C)C)C(=O)N[C@H](C(=O)N[C@@H](CCCCN)C(=O)NCC(=O)N[C@@H](CCCNC(=N)N)C(N)=O)C(C)C [GLP-1(7-36) amide]	without inducing hypoglycemia in any of the patients	No untoward side effects	
12-O-tetradecanoylphobol-13-acetate [TPA]			significant increases
